Experimental findings from patent US20250353891A1 (MEDIMMUNE LIMITED, priority 2022, published 2025) are described below.

Each structure is given as a SMILES string. pEC50: −log10 of the molar value. Starred links: 1 amine or outer side, 2 acyl side, 3 side chain; linkers in the order of their positions; H or OH if unused. Non-standard residues stand in square brackets, D forms with d. Residues, ends and D or L forms follow the SMILES beside them. Groups on a side chain read outwards from the residue. *: point of attachment. C20 diacid = O=C(O)CCCCCCCCCCCCCCCCCCC(=O)*; C18 diacid = O=C(O)CCCCCCCCCCCCCCCCC(=O)*; γGlu = O=C(O)[C@H](CCC(=O)[*:2])N[*:1]; αMeF = C[C@](N)(Cc1ccccc1)C(=O)O; AEEA = NCCOCCOCC(=O)O; Aib = CC(C)(N)C(=O)O

A word on the pEC50: it is the negative decadic logarithm of the EC50, by convention in mol/L.

In test [1] the target is human GLP-1 receptor (hGLP-1R) (Homo sapiens, UniProt P43220). Briefly: cAMP production (HTRF) in CHO cells expressing hGLP-1R. The conditions noted are these: for pEC50: Table 6, peptides modified at position 17, cAMP in CHO hGLP-1R cells, geometric mean, read-out: hGLP-1R EC50; for % Relative Potency Ratio: Table 6, % GLP-1R activity relative to GLP-1 / % GlucR activity relative to glucagon. It counts as cell-based. More on the design: expressed in transfected cells. Put shortly: (§1)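 Cells were resuspended in assay buffer at batch-optimized density, typically 1×10^5 cells/mL for hGLP-1R and 2×10^5 cells/mL for hGCGR. After 30 min incubation at room temperature with compound, cAMP was measured by two-step HTRF. EC50 values came from 4-parameter logistic fits of % Delta F.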
Sequence of human GLP-1 receptor (hGLP-1R) (P43220 24-463): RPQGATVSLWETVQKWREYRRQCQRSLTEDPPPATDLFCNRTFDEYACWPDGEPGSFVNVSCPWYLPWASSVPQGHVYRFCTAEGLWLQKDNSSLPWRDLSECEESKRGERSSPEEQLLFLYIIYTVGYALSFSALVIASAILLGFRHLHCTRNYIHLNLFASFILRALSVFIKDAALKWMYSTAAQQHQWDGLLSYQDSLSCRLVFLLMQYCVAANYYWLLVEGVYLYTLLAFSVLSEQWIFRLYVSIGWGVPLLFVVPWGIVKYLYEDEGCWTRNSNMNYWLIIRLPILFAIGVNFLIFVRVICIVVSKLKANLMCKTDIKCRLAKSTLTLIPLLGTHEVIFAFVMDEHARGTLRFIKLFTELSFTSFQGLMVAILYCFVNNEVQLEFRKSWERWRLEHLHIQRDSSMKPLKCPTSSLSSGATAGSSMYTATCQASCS
(Changes in cAMP serve as a functional read-out for many G protein-coupled receptors.)

Test [2] has as its target human glucagon receptor (hGCGR) (Homo sapiens, UniProt P47871). Briefly: cAMP production (HTRF) in CHO cells expressing hGCGR. It counts as cell-based. More on the design: expressed in transfected cells. To be noted: Table 6, peptides modified at position 17; cAMP in CHO hGCGR cells; geometric mean; read-out: hGluc-R EC50. The essentials:
as §1

Sequence of human glucagon receptor (hGCGR) (P47871 26-477): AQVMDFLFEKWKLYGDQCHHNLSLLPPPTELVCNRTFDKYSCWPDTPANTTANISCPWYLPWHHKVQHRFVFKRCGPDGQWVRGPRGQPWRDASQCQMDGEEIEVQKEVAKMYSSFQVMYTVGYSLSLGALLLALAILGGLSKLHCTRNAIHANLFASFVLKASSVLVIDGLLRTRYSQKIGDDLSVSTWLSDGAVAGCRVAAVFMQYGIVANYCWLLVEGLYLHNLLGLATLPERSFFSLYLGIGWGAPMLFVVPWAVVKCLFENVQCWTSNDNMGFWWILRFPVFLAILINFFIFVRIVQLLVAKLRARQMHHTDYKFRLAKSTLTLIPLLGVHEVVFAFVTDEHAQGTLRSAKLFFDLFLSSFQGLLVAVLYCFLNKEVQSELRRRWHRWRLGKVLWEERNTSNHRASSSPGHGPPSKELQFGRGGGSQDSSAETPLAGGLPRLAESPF

Turning to `CC(C)C[C@H](NC(=O)[C@H](Cc1c[nH]c2ccccc12)NC(=O)[C@H](CCC(N)=O)NC(=O)[C@@H](NC(=O)[C@H](Cc1ccccc1)NC(=O)[C@H](CC(=O)O)NC(=O)[C@H](CCC(N)=O)NC(=O)[C@H](C)NC(=O)[C@H](CCCNC(=N)N)NC(=O)[C@H](CCCCNC(=O)COCCOCCNC(=O)COCCOCCNC(=O)CC[C@H](NC(=O)CCCCCCCCCCCCCCCCCCC(=O)O)C(=O)O)NC(=O)[C@@H](NC(=O)[C@H](CC(=O)O)NC(=O)[C@H](CC(C)C)NC(=O)[C@](C)(Cc1ccccc1)NC(=O)[C@H](CCCCN)NC(=O)[C@H](CO)NC(=O)[C@@H](NC(=O)[C@H](CC(=O)O)NC(=O)[C@H](CO)NC(=O)[C@@H](NC(=O)[C@H](Cc1ccccc1)NC(=O)[C@@H](NC(=O)CNC(=O)[C@H](CCC(N)=O)NC(=O)C(C)(C)NC(=O)[C@@H](N)Cc1c[nH]cn1)[C@@H](C)O)[C@@H](C)O)C(C)C)[C@@H](C)O)C(C)C)C(=O)N[C@@H](CC(C)C)C(=O)NC(C)(C)C(=O)N[C@@H](CCC(=O)O)C(=O)O` [Peptide 484] (H-H[Aib]QGTFTSDVSK[αMeF]LDTK([AEEA-AEEA-γGlu-C20 diacid])RAQDFVQWLL[Aib]E-OH; N-terminus assumed), in test [1], the pEC50 was 9.47 and the “% Relative Potency Ratio” value is reported as 1.0. Also, the pEC50 in test [2] is 9.77.

Consider `CC(C)C[C@H](NC(=O)[C@H](Cc1c[nH]c2ccccc12)NC(=O)[C@H](CCC(N)=O)NC(=O)[C@@H](NC(=O)[C@H](Cc1ccccc1)NC(=O)[C@H](CC(=O)O)NC(=O)[C@H](CCC(N)=O)NC(=O)[C@H](C)NC(=O)[C@H](CCCNC(=N)N)NC(=O)[C@H](CCCCNC(=O)COCCOCCNC(=O)COCCOCCNC(=O)CC[C@H](NC(=O)CCCCCCCCCCCCCCCCCCC(=O)O)C(=O)O)NC(=O)[C@@H](NC(=O)[C@H](CC(=O)O)NC(=O)[C@H](CC(C)C)NC(=O)[C@](C)(Cc1ccccc1)NC(=O)[C@H](CCCCN)NC(=O)[C@H](CO)NC(=O)[C@@H](NC(=O)[C@H](CC(=O)O)NC(=O)[C@H](CO)NC(=O)[C@@H](NC(=O)[C@H](Cc1ccccc1)NC(=O)[C@@H](NC(=O)CNC(=O)[C@H](CCC(N)=O)NC(=O)C(C)(C)NC(=O)[C@@H](N)Cc1c[nH]cn1)[C@@H](C)O)[C@@H](C)O)C(C)C)[C@@H](C)O)C(C)C)C(=O)N[C@@H](CC(C)C)C(=O)NC(C)(C)C(=O)N[C@@H](CCC(=O)O)C(N)=O` [Peptide 485] (H-H[Aib]QGTFTSDVSK[αMeF]LDTK([AEEA-AEEA-γGlu-C20 diacid])RAQDFVQWLL[Aib]E-NH2; N-terminus assumed), for which, in test [1], the pEC50 is 9.66 and the “% Relative Potency Ratio” value is 0.8. Moreover, the pEC50 in test [2] was 10.04.

For `CC(C)C[C@H](NC(=O)[C@H](CC(=O)O)NC(=O)[C@H](CC(C)C)NC(=O)[C@](C)(Cc1ccccc1)NC(=O)[C@H](CCCCN)NC(=O)[C@H](CO)NC(=O)[C@@H](NC(=O)[C@H](CC(=O)O)NC(=O)[C@H](CO)NC(=O)[C@@H](NC(=O)[C@H](Cc1ccccc1)NC(=O)[C@@H](NC(=O)CNC(=O)[C@H](CCC(N)=O)NC(=O)C(C)(C)NC(=O)[C@@H](N)Cc1c[nH]cn1)[C@@H](C)O)[C@@H](C)O)C(C)C)C(=O)N[C@@H](CCCCNC(=O)COCCOCCNC(=O)COCCOCCNC(=O)CC[C@H](NC(=O)CCCCCCCCCCCCCCCCCCC(=O)O)C(=O)O)C(=O)N[C@@H](CCCNC(=N)N)C(=O)N[C@@H](C)C(=O)N[C@@H](CCC(N)=O)C(=O)N[C@@H](CC(=O)O)C(=O)N[C@@H](Cc1ccccc1)C(=O)N[C@H](C(=O)N[C@@H](CCCNC(=N)N)C(=O)N[C@@H](Cc1c[nH]c2ccccc12)C(=O)N[C@@H](CC(C)C)C(=O)N[C@@H](CC(C)C)C(=O)NC(C)(C)C(=O)N[C@@H](CCC(=O)O)C(=O)O)C(C)C` [Peptide 486], in test [1], the pEC50 is 9.38 and the “% Relative Potency Ratio” value is 0.8. In test [2], the pEC50 was 9.78.

As to `CC(C)C[C@H](NC(=O)[C@H](Cc1c[nH]c2ccccc12)NC(=O)[C@H](CCC(N)=O)NC(=O)[C@@H](NC(=O)[C@H](Cc1ccccc1)NC(=O)[C@H](CC(=O)O)NC(=O)[C@H](CCCNC(=N)N)NC(=O)[C@H](C)NC(=O)[C@H](CCCNC(=N)N)NC(=O)[C@H](CCCCNC(=O)COCCOCCNC(=O)COCCOCCNC(=O)CC[C@H](NC(=O)CCCCCCCCCCCCCCCCC(=O)O)C(=O)O)NC(=O)[C@@H](NC(=O)[C@H](CC(=O)O)NC(=O)[C@H](CC(C)C)NC(=O)[C@](C)(Cc1ccccc1)NC(=O)[C@H](CCCCN)NC(=O)[C@H](CO)NC(=O)[C@@H](NC(=O)[C@H](CC(=O)O)NC(=O)[C@H](CO)NC(=O)[C@@H](NC(=O)[C@H](Cc1ccccc1)NC(=O)[C@@H](NC(=O)CNC(=O)[C@H](CCC(N)=O)NC(=O)C(C)(C)NC(=O)[C@@H](N)Cc1c[nH]cn1)[C@@H](C)O)[C@@H](C)O)C(C)C)[C@@H](C)O)C(C)C)C(=O)N[C@@H](CC(C)C)C(=O)NC(C)(C)C(=O)N[C@H](C(=O)N[C@@H](CCC(=O)O)C(=O)O)[C@@H](C)O` [Peptide 487] (H-H[Aib]QGTFTSDVSK[αMeF]LDTK([AEEA-AEEA-γGlu-C18 diacid])RARDFVQWLL[Aib]TE-OH), in test [1], the pEC50 was 10.18 and the “% Relative Potency Ratio” value was 5.0. In addition, the pEC50 in test [2] is 9.78.

Turning to `CC(C)C[C@H](NC(=O)[C@H](Cc1c[nH]c2ccccc12)NC(=O)[C@H](CCC(N)=O)NC(=O)[C@@H](NC(=O)[C@H](Cc1ccccc1)NC(=O)[C@H](CC(=O)O)NC(=O)[C@H](CCCNC(=N)N)NC(=O)[C@H](C)NC(=O)[C@H](CCCNC(=N)N)NC(=O)[C@H](CCCCNC(=O)COCCOCCNC(=O)COCCOCCNC(=O)CC[C@H](NC(=O)CCCCCCCCCCCCCCCCCCC(=O)O)C(=O)O)NC(=O)[C@@H](NC(=O)[C@H](CC(=O)O)NC(=O)[C@H](CC(C)C)NC(=O)[C@](C)(Cc1ccccc1)NC(=O)[C@H](CCCCN)NC(=O)[C@H](CO)NC(=O)[C@@H](NC(=O)[C@H](CC(=O)O)NC(=O)[C@H](CO)NC(=O)[C@@H](NC(=O)[C@H](Cc1ccccc1)NC(=O)[C@@H](NC(=O)CNC(=O)[C@H](CCC(N)=O)NC(=O)C(C)(C)NC(=O)[C@@H](N)Cc1c[nH]cn1)[C@@H](C)O)[C@@H](C)O)C(C)C)[C@@H](C)O)C(C)C)C(=O)N[C@@H](CC(C)C)C(=O)NC(C)(C)C(=O)N[C@H](C(=O)N[C@@H](CCC(=O)O)C(=O)O)[C@@H](C)O` [Peptide 488] (H-H[Aib]QGTFTSDVSK[αMeF]LDTK([AEEA-AEEA-γGlu-C20 diacid])RARDFVQWLL[Aib]TE-OH; N-terminus assumed), the pEC50 is 9.69 in test [1] and 9.52 in test [2]. In addition, the “% Relative Potency Ratio” value in test [1] came to 2.9.

With `CC(C)C[C@H](NC(=O)[C@H](Cc1c[nH]c2ccccc12)NC(=O)[C@H](CCC(N)=O)NC(=O)[C@@H](NC(=O)[C@H](Cc1ccccc1)NC(=O)[C@H](CC(=O)O)NC(=O)[C@H](CCCNC(=N)N)NC(=O)[C@H](C)NC(=O)[C@H](CCCNC(=N)N)NC(=O)[C@H](CCCCNC(=O)COCCOCCNC(=O)COCCOCCNC(=O)CC[C@H](NC(=O)CCCCCCCCCCCCCCCCC(=O)O)C(=O)O)NC(=O)[C@@H](NC(=O)[C@H](CC(=O)O)NC(=O)[C@H](CC(C)C)NC(=O)[C@](C)(Cc1ccccc1)NC(=O)[C@H](CCCCN)NC(=O)[C@H](CO)NC(=O)[C@@H](NC(=O)[C@H](CC(=O)O)NC(=O)[C@H](CO)NC(=O)[C@@H](NC(=O)[C@H](Cc1ccccc1)NC(=O)[C@@H](NC(=O)CNC(=O)[C@H](CCC(N)=O)NC(=O)C(C)(C)NC(=O)[C@@H](N)Cc1c[nH]cn1)[C@@H](C)O)[C@@H](C)O)C(C)C)[C@@H](C)O)C(C)C)C(=O)N[C@@H](CC(C)C)C(=O)NC(C)(C)C(=O)N[C@H](C(=O)N[C@@H](CCC(=O)O)C(N)=O)[C@@H](C)O` [Peptide 489] (H-H[Aib]QGTFTSDVSK[αMeF]LDTK([AEEA-AEEA-γGlu-C18 diacid])RARDFVQWLL[Aib]TE-NH2; N-terminus assumed), the pEC50 in test [1] was 10.64; in test [2], 9.78. The “% Relative Potency Ratio” value in test [1] turned out to be 14.5.

As for `CC(C)C[C@H](NC(=O)[C@H](Cc1c[nH]c2ccccc12)NC(=O)[C@H](CCC(N)=O)NC(=O)[C@@H](NC(=O)[C@H](Cc1ccccc1)NC(=O)[C@H](CC(=O)O)NC(=O)[C@H](CCCNC(=N)N)NC(=O)[C@H](C)NC(=O)[C@H](CCCNC(=N)N)NC(=O)[C@H](CCCCNC(=O)COCCOCCNC(=O)COCCOCCNC(=O)CC[C@H](NC(=O)CCCCCCCCCCCCCCCCCCC(=O)O)C(=O)O)NC(=O)[C@@H](NC(=O)[C@H](CC(=O)O)NC(=O)[C@H](CC(C)C)NC(=O)[C@](C)(Cc1ccccc1)NC(=O)[C@H](CCCCN)NC(=O)[C@H](CO)NC(=O)[C@@H](NC(=O)[C@H](CC(=O)O)NC(=O)[C@H](CO)NC(=O)[C@@H](NC(=O)[C@H](Cc1ccccc1)NC(=O)[C@@H](NC(=O)CNC(=O)[C@H](CCC(N)=O)NC(=O)C(C)(C)NC(=O)[C@@H](N)Cc1c[nH]cn1)[C@@H](C)O)[C@@H](C)O)C(C)C)[C@@H](C)O)C(C)C)C(=O)N[C@@H](CC(C)C)C(=O)NC(C)(C)C(=O)N[C@H](C(=O)N[C@@H](CCC(=O)O)C(N)=O)[C@@H](C)O` [Peptide 490] (H-H[Aib]QGTFTSDVSK[αMeF]LDTK([AEEA-AEEA-γGlu-C20 diacid])RARDFVQWLL[Aib]TE-NH2; N-terminus assumed), in test [1], the pEC50 was 10.16 and the “% Relative Potency Ratio” value was 11.4. Further, the pEC50 in test [2] is 9.40.
